Assay results taken from US10800791B2, “Triazole ACC inhibitors and uses thereof” (Gilead Apollo, LLC, priority 2015, dated 2020).
Values after ≈ are worked out from the molar mass of the structure shown. Read-outs that look alike come from different tables or passages of the source.

How the values were obtained:
fungal (fACC2) = fungal (fACC2) (UniProt Q00955); settings: read-out: fACC2 (in vitro ACC2 Inhibition Assay, IC50), ADP-Glo, 5 nM ACC2, 20 μM ATP, 20 μM acetyl-CoA
C. parapsilosis = experiment: Antifungal Activity Assay (broth microtiter MIC), C. parapsilosis; assay type: cell-based, Candida parapsilosis; settings: Lodderomyces parapsilosis, ATCC22019, 48 h, ATCC 22019, 3 replicates, MIC recorded at 48 h, read-out: MIC, C. parapsilosis ATCC 22019
Procedure: (§1) Compounds of the present invention were evaluated in an Antifungal Activity Assay. An exemplary procedure for the assay, which measures the susceptibility of various Candida species to antifungal compounds, follows. Compounds to be tested (including fluconazole and amphotericin B) were dissolved in DMSO to obtain a solution having a concentration of 1 mg/mL. These stock solutions were sterile filtered using a 0.22 um nylon syringe filter, then diluted in sterile water to achieve a final concentration of 128 μg/mL.
(§2) All species were grown from frozen stock by directly plating on to freshly prepared Sabouraud Dextrose agar (BD, Difco) and incubated overnight in ambient air at 35° C. for 24 h. A direct suspension was prepared in RPMI 1640+MOPS (Lonza, Biowhittaker) by taking individual colonies from the overnight cultures using sterile swabs soaked in sterile saline. The concentration of the suspension was determined using pre-determined standard curves. These suspensions were then diluted down to 5×10^3 CFU/mL to achieve a final concentration of 2.5×10^3 CFU/mL once added to the microtiter plate as per CLSI guidelines (M27-A3, Vol. 28 No. 14).
(§3) Broth microtiter MIC challenge plates were prepared following CLSI guidelines (M27-A3, Vol. 28 No. 14). The original CLSI guidelines focused on reading Candida MICs after 48 h of incubation. As reading after only 24 h offers a clear advantage of patient care, QC limits are being established for all drugs at 24 h. That being said there are no known interpretive breakpoints for amphotericin B at 24 h and the current fluconazole interpretive breakpoints are based on a 48 h reading. The MICs for the test compounds were recorded at 48 h. All MIC determinations were achieved by visually comparing the growth found in the antibiotic challenged wells to that of the growth control.

C. krusei = experiment: Antifungal Activity Assay (broth microtiter MIC), C. krusei; assay type: cell-based, Candida krusei; settings: Pichia kudriavzevii, ATCC6258, 48 h, ATCC 6258, 3 replicates, MIC recorded at 48 h, read-out: MIC, C. krusei ATCC 6258
Procedure: as §1, §2, §3

human (hACC2) = human (hACC2) (Homo sapiens, UniProt O00763); experiment: In vitro ACC inhibition assay (ADP-Glo), hACC2; assay type: biochemical; settings: 5 nM ACC2, 20 μM ATP, 20 μM acetyl-CoA
Procedure: The detailed procedure is as follows. […] 10 μL ADP glo reagent was added. […] 20 μL kinase detection reagent was added.

C. albicans = experiment: Antifungal Activity Assay (broth microtiter MIC), C. albicans; assay type: cell-based, Candida albicans; settings: Candida albicans, ATCC90028, 48 h, ATCC 90028, 3 replicates, MIC recorded at 48 h, read-out: MIC, C. albicans ATCC 90028
Procedure: as §1, §2, §3

human (hACC2), sequence (O00763 whole entry): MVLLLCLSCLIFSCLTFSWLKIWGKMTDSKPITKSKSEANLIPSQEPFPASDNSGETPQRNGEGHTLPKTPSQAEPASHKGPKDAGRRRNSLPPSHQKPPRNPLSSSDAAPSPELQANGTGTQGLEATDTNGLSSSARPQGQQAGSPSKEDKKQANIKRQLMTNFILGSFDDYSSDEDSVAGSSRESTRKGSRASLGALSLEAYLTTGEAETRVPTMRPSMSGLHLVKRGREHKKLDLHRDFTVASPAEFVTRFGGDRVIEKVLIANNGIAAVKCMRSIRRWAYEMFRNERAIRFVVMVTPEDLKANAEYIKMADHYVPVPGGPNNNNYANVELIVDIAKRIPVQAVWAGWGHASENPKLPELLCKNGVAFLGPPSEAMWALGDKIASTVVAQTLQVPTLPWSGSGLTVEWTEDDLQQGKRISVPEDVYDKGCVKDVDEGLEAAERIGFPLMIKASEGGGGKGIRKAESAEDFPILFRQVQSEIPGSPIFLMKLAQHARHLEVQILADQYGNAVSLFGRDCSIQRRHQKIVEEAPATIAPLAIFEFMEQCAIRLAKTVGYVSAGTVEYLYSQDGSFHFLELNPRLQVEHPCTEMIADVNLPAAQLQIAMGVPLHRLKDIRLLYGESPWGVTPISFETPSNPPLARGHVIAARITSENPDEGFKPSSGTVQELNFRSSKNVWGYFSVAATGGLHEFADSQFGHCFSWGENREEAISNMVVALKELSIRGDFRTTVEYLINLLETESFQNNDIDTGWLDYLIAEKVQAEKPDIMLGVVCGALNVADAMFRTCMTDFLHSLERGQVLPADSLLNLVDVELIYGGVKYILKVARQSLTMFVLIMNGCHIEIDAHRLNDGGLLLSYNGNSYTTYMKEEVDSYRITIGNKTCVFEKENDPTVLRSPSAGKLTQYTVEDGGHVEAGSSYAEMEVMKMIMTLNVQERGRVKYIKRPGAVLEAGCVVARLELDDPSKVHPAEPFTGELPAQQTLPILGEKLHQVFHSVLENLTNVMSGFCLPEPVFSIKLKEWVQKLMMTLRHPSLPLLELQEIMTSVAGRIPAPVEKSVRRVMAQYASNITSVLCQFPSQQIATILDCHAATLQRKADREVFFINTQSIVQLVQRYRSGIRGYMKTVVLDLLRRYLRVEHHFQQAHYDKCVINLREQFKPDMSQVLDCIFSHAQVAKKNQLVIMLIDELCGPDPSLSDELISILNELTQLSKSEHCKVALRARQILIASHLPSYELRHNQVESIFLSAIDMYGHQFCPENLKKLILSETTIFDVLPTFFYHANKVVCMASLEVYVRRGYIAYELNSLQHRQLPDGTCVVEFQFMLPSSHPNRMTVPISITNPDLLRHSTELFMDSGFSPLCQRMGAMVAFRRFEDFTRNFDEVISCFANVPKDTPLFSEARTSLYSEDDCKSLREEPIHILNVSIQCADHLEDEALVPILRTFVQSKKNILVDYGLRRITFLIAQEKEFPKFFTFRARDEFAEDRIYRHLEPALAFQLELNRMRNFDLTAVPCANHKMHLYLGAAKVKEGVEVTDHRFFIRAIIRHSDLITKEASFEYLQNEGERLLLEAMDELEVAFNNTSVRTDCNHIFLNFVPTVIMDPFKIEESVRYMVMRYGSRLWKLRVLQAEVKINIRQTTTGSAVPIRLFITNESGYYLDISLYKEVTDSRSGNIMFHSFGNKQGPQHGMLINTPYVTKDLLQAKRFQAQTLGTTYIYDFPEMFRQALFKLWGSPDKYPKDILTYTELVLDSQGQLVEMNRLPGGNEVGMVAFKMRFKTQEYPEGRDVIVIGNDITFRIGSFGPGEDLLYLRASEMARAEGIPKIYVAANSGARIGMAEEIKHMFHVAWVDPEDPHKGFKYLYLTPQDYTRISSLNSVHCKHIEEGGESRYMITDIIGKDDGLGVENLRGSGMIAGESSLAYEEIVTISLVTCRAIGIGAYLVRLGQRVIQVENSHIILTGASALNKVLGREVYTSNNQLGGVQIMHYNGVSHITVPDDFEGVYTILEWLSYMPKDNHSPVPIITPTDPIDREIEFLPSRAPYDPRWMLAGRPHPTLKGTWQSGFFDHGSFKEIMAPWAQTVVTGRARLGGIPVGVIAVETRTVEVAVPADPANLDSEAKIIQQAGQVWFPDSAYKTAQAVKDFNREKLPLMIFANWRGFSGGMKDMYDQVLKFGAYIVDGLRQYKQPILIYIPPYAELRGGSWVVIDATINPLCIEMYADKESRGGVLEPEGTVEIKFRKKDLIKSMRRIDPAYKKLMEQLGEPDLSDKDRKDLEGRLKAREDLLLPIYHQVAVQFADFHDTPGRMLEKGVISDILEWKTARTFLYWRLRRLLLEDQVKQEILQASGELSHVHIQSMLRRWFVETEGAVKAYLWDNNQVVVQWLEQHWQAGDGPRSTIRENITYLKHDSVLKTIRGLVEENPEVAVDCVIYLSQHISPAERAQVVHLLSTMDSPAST
fungal (fACC2), sequence (Q00955 whole entry): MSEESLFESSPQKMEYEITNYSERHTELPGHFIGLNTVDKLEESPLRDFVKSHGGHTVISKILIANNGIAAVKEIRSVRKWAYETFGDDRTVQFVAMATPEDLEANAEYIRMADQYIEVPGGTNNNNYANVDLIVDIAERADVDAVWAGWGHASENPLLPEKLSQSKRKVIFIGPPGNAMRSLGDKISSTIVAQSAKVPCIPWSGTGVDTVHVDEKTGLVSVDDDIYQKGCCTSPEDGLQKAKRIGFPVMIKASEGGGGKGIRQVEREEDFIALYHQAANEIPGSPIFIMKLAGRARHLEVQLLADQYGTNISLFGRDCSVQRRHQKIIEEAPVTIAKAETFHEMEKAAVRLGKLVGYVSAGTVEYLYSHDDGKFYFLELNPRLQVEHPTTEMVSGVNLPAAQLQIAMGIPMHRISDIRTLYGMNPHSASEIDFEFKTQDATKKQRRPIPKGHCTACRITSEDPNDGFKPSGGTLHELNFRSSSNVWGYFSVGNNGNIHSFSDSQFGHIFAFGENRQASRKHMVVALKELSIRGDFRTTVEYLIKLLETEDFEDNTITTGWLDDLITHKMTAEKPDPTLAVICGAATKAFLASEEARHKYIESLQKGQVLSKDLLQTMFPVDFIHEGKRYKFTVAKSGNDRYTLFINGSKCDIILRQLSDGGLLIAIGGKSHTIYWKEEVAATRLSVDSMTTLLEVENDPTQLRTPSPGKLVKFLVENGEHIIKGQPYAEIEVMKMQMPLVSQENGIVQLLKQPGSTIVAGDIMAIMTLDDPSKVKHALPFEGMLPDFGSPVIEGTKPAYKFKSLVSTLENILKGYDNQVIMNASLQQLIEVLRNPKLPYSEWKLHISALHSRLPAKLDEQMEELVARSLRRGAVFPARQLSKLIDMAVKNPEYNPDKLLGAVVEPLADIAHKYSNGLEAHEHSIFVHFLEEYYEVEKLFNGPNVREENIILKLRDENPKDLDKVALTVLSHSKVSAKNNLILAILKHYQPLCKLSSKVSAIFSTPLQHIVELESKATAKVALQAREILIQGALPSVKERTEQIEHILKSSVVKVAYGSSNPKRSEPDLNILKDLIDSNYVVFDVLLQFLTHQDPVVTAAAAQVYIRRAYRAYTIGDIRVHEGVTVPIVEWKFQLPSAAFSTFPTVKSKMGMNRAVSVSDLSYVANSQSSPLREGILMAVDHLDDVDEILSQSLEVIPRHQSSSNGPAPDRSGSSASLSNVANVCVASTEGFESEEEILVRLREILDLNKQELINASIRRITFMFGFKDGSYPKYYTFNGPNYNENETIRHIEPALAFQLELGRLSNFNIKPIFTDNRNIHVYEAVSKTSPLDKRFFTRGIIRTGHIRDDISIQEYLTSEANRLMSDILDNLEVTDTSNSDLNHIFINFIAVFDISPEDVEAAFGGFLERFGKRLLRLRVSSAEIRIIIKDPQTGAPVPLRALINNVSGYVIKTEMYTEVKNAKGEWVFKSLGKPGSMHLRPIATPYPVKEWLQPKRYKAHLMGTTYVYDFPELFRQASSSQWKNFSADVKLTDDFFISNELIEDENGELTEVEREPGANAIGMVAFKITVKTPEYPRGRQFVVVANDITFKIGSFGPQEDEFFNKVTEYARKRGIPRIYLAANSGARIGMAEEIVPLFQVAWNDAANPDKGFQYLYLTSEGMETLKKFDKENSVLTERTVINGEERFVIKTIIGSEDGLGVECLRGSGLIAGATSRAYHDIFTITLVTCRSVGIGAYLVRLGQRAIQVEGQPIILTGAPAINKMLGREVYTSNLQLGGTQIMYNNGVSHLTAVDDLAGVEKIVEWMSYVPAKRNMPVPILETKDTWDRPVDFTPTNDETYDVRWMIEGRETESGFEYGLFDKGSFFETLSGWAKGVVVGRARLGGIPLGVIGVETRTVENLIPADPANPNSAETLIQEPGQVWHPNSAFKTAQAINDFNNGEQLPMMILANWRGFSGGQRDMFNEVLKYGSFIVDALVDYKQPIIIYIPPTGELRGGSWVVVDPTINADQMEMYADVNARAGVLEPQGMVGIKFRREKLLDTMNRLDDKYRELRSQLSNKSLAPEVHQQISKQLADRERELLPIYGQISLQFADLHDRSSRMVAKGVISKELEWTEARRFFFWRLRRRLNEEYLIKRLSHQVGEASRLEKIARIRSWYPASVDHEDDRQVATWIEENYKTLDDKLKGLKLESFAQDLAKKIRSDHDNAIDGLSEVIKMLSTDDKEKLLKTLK

Compound | IC50 (fungal (fACC2); Table 2a) | IC50 (fungal (fACC2); Table 2b, additional results) | MIC (C. parapsilosis; Table 3a) | MIC (C. parapsilosis; Table 3b (additional results)) | MIC (C. krusei; Table 3a) | MIC (C. krusei; Table 3b (additional results)) | IC50 (human (hACC2); Table 2a) | IC50 (human (hACC2); Table 2b, additional results) | MIC (C. albicans; Table 3a) | MIC (C. albicans; Table 3b (additional results))
COCCO[C@@H](Cn1c(=O)n(C(C)(C)C(=O)OC2CCC2)c(=O)c2c(C)c(-n3nccn3)sc21)c1cc(F)ccc1OC [Compound I-128] | 1 to 5 nM | 1 to 5 nM | 2.1 to 4 µg/mL (≈ 3.41 to 6.5 µM) | 2.01 to 4 µg/mL (≈ 3.26 to 6.5 µM) | 1.1 to 2 µg/mL (≈ 1.79 to 3.25 µM) | 2.01 to 4 µg/mL (≈ 3.26 to 6.5 µM) | 10 to 40 nM | 10 to 40 nM | 2.1 to 4 µg/mL (≈ 3.41 to 6.5 µM) | > 4.01 µg/mL
COc1ccc(F)cc1[C@H](Cn1c(=O)n(C(C)(C)C(=O)NC(C)C)c(=O)c2c(C)c(-n3nccn3)sc21)OCCOC(=O)C(C)C [Compound I-250] |  | 1 to 5 nM |  | 0.25 to 1 µg/mL (≈ 0.38 to 1.52 µM) |  | 0.25 to 1 µg/mL (≈ 0.38 to 1.52 µM) |  | 5 to 10 nM |  | 1.01 to 2 µg/mL (≈ 1.53 to 3.04 µM)
COc1ccc(F)cc1[C@H](Cn1c(=O)n(C(C)(C)C(=O)O)c(=O)c2c(C)c(-n3nccn3)sc21)OC[C@@H](C)C#N [Compound I-147] | 1 to 5 nM | 1 to 5 nM | 2.1 to 4 µg/mL (≈ 3.68 to 7.01 µM) | > 4.01 µg/mL | 2.1 to 4 µg/mL (≈ 3.68 to 7.01 µM) | > 4.01 µg/mL | 5 to 10 nM | 5 to 10 nM | 2.1 to 4 µg/mL (≈ 3.68 to 7.01 µM) | 2.01 to 4 µg/mL (≈ 3.52 to 7.01 µM)
COc1ccc(F)cc1[C@H](Cn1c(=O)n(C(C)(C)C(=O)N2CC=CC2)c(=O)c2c(C)c(-n3nccn3)sc21)OCC(C)O (some centres unmarked) [Compound I-121] | 1 to 5 nM | 1 to 5 nM | 1.1 to 2 µg/mL (≈ 1.8 to 3.26 µM) | 2.01 to 4 µg/mL (≈ 3.28 to 6.53 µM) | 0.25 to 1 µg/mL (≈ 0.408 to 1.63 µM) | > 4.01 µg/mL | 1 to 5 nM | 1 to 5 nM | 1.1 to 2 µg/mL (≈ 1.8 to 3.26 µM) | 1.01 to 2 µg/mL (≈ 1.65 to 3.26 µM)
COc1ccccc1[C@H](Cn1c(=O)n([C@@H](C)C(=O)N(C)C(C)C)c(=O)c2c(C)c(-n3nccn3)sc21)OCCO [Compound I-207] |  | 0.3 to 1 nM |  | 1.01 to 2 µg/mL (≈ 1.77 to 3.5 µM) |  | 1.01 to 2 µg/mL (≈ 1.77 to 3.5 µM) |  | 5 to 10 nM |  | 1.01 to 2 µg/mL (≈ 1.77 to 3.5 µM)
COc1ccc(F)cc1[C@H](Cn1c(=O)n(C(C)(C)C(=O)N2CCCC2)c(=O)c2c(C)c(-n3nccn3)sc21)OCC(O)C(F)(F)F (some centres unmarked) [Compound I-113] | 1 to 5 nM | 1 to 5 nM | 1.1 to 2 µg/mL (≈ 1.65 to 2.99 µM) | 1.01 to 2 µg/mL (≈ 1.51 to 2.99 µM) | 0.25 to 1 µg/mL (≈ 0.374 to 1.5 µM) | 2.01 to 4 µg/mL (≈ 3.01 to 5.98 µM) | 1 to 5 nM | 1 to 5 nM | 0.25 to 1 µg/mL (≈ 0.374 to 1.5 µM) | > 4.01 µg/mL
CCc1ccc(F)cc1[C@@H](Cn1c(=O)n(C(C)(C)C(=O)NC(C)C)c(=O)c2c(C)c(-n3nccn3)sc21)OCC(C)(C)O (stereo in doubt) [Compound I-241] |  | 5 to 10 nM |  | 2.01 to 4 µg/mL (≈ 3.27 to 6.51 µM) |  | > 4.01 µg/mL |  | > 40 nM |  | 1.01 to 2 µg/mL (≈ 1.64 to 3.25 µM)
Cc1c(-n2nccn2)sc2c1c(=O)n(C(C)(C)C(=O)NC(C)C)c(=O)n2C[C@H](OC1CCOCC1)c1cc(F)ccc1OCCO [Compound I-111] | 0.4 to 1 nM | 0.3 to 1 nM | 0.25 to 1 µg/mL (≈ 0.38 to 1.52 µM) | 0.25 to 1 µg/mL (≈ 0.38 to 1.52 µM) | 0.25 to 1 µg/mL (≈ 0.38 to 1.52 µM) | 0.06 to 0.249 µg/mL (≈ 0.0911 to 0.378 µM) | 1 to 5 nM | 1 to 5 nM | 0.25 to 1 µg/mL (≈ 0.38 to 1.52 µM) | 0.06 to 0.249 µg/mL (≈ 0.0911 to 0.378 µM)
C=CCN(C)C(=O)C(C)(C)n1c(=O)c2c(C)c(-n3nccn3)sc2n(C[C@H](OC(C)C)c2cc(F)ccc2OC)c1=O [Compound I-115] | 1 to 5 nM | 1 to 5 nM | 1.1 to 2 µg/mL (≈ 1.84 to 3.34 µM) | > 4.01 µg/mL | 1.1 to 2 µg/mL (≈ 1.84 to 3.34 µM) | 1.01 to 2 µg/mL (≈ 1.69 to 3.34 µM) | 5 to 10 nM | 5 to 10 nM | 2.1 to 4 µg/mL (≈ 3.51 to 6.68 µM) | 1.01 to 2 µg/mL (≈ 1.69 to 3.34 µM)
CCc1ccc(F)cc1[C@H](Cn1c(=O)n(C(C)(C)C(=O)NC(C)C)c(=O)c2c(C)c(-n3nccn3)sc21)OC[C@@H](C)C#N [Compound I-244] |  | 1 to 5 nM |  | 2.01 to 4 µg/mL (≈ 3.3 to 6.56 µM) |  | > 4.01 µg/mL |  | > 40 nM |  | 2.01 to 4 µg/mL (≈ 3.3 to 6.56 µM)
